Read-outs that look alike come from different tables or passages of the source.
Legend:
[1] = target: human TYK2 (JH2domain-pseudokinase) (Homo sapiens (Human), UniProt P29597); assay: TYK2 JH2 Domain Binding Assay (KINOMEscan)
Outline: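 Competition binding of an NFkB-DBD fusion of human TYK2 JH2 (G556–D888), expressed in HEK293 and used as crude extract at <0.1 nM, against immobilized ligand beads; 1 h at room temperature in PBS/Tween/DTT/BSA buffer, 0.9% DMSO.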

[2] = target: Tyk2 kinase domain (DH1) (Homo sapiens (Human), UniProt P29597); assay: Tyk2 Radioactive Kinase Assay; format: biochemical; conditions: for inhibition at 10 µM: read-out: Tyk2 JH1% Inhibition @ 10 μM
Chain of Tyk2 kinase domain (DH1) (P29597 897-1176): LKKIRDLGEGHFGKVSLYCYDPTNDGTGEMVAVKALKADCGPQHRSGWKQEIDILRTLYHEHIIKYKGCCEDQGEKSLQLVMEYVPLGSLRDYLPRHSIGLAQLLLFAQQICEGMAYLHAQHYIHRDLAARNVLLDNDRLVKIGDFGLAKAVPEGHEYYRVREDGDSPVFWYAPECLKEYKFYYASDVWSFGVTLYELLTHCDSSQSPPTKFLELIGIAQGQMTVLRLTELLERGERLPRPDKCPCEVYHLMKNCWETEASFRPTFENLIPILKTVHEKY
Outline: (§1)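 Single-point screen: 10 μM test compound, radioactive kinase read-out, percent inhibition reported for each kinase domain.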

[3] = target: JAK2 kinase domain (JH1) (Homo sapiens (Human), UniProt O60674); assay: JAK2 Radioactive Kinase Assay; format: biochemical; conditions: for inhibition at 10 µM: read-out: JAK2 JH1% Inhibition @ 10 μM
Chain of JAK2 kinase domain (JH1) (O60674 849-1124): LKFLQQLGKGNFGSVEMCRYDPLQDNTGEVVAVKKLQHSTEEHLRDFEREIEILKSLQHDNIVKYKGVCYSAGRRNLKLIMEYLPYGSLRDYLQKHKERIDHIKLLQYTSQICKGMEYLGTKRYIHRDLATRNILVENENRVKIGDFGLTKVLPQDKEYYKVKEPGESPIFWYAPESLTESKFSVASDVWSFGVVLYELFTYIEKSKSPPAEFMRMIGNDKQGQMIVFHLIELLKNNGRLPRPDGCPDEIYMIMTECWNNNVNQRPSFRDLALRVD
Outline: as §1

[4] = target: Tyk2/JAK2 (heterodimeric complex) (Homo sapiens (Human), UniProt P29597); assay: IL-12 Induced pSTAT4 in Human PBMC; format: cell-based; conditions: 1.7 ng/mL IL-12
Chain of Tyk2/JAK2 (heterodimeric complex) (P29597 whole entry, other chains not shown): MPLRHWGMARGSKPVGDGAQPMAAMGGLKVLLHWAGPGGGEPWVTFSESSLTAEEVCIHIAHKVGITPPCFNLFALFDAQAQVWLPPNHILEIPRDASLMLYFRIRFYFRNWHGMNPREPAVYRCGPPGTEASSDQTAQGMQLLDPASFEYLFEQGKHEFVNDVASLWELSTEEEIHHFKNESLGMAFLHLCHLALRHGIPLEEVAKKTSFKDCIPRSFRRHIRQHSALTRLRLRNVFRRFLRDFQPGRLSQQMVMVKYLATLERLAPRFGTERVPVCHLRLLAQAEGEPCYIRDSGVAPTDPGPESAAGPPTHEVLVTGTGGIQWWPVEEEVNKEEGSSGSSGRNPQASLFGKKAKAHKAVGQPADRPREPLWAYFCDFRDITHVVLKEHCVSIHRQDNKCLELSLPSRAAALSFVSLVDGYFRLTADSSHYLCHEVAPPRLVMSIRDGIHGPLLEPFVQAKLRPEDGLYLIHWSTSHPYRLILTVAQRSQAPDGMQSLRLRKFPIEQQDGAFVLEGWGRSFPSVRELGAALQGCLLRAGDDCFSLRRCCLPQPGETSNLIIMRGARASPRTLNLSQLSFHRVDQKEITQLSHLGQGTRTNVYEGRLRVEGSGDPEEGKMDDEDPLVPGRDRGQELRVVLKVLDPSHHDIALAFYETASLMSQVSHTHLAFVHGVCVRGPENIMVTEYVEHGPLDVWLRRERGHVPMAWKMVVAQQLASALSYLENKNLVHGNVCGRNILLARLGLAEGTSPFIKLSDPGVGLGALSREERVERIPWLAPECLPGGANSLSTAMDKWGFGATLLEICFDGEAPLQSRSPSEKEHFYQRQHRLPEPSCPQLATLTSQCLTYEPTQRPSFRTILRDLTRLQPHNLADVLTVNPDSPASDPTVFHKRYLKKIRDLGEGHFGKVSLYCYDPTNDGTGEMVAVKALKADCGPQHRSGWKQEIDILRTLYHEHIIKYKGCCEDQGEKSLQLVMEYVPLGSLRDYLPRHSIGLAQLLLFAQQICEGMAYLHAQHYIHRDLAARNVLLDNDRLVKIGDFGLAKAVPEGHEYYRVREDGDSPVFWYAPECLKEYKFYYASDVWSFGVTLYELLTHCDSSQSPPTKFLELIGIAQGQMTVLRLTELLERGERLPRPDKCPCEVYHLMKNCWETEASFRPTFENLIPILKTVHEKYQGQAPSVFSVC
Text: The IL-12 Induced pSTAT4 assay evaluates the inhibition of IL-12 induced STAT4 phophorylation mediated by Tyk2/JAK2 (heterodimeric complex).

[5] = target: JAK2/JAK2 homdimeric complex (Homo sapiens (Human), UniProt O60674); assay: GM-CSF Induced pSTAT5 in Human PBMC; format: cell-based; conditions: GM-CSF 5 ng/mL for 20 minutes, pSTAT5 by MSD, read-out: PBMC_GMCSF_pSTAT5 IC50
Chain of JAK2/JAK2 homdimeric complex (O60674 whole entry): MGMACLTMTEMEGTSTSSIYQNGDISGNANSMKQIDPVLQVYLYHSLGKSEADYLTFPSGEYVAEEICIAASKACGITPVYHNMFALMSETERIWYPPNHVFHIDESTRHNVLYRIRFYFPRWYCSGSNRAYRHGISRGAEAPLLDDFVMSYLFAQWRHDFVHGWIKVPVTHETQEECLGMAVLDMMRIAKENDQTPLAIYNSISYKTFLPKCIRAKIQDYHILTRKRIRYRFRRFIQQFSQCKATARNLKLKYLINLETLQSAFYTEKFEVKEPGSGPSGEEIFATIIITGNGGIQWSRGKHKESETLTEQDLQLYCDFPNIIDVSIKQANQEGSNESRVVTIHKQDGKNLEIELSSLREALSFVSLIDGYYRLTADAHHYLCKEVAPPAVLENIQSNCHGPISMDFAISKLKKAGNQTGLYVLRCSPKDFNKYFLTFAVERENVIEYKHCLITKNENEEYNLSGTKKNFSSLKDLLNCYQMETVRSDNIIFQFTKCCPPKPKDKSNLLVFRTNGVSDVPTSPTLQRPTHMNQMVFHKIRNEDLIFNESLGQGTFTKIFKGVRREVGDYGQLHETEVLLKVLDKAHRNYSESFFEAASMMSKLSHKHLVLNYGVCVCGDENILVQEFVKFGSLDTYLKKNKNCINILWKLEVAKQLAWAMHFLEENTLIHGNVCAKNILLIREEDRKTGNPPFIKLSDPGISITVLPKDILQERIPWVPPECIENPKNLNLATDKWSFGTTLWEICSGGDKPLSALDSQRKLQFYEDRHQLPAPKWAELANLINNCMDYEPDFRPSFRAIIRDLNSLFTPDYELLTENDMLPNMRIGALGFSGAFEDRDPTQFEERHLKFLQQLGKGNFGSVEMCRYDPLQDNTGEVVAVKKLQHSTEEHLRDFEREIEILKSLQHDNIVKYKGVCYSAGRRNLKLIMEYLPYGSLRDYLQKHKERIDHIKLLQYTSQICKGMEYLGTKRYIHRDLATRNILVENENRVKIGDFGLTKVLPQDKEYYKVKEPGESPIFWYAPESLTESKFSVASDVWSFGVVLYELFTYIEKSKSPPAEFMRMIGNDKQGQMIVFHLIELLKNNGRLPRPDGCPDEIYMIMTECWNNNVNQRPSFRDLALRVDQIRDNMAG
Chain of JAK2/JAK2 homdimeric complex (P32927 17-897 partner): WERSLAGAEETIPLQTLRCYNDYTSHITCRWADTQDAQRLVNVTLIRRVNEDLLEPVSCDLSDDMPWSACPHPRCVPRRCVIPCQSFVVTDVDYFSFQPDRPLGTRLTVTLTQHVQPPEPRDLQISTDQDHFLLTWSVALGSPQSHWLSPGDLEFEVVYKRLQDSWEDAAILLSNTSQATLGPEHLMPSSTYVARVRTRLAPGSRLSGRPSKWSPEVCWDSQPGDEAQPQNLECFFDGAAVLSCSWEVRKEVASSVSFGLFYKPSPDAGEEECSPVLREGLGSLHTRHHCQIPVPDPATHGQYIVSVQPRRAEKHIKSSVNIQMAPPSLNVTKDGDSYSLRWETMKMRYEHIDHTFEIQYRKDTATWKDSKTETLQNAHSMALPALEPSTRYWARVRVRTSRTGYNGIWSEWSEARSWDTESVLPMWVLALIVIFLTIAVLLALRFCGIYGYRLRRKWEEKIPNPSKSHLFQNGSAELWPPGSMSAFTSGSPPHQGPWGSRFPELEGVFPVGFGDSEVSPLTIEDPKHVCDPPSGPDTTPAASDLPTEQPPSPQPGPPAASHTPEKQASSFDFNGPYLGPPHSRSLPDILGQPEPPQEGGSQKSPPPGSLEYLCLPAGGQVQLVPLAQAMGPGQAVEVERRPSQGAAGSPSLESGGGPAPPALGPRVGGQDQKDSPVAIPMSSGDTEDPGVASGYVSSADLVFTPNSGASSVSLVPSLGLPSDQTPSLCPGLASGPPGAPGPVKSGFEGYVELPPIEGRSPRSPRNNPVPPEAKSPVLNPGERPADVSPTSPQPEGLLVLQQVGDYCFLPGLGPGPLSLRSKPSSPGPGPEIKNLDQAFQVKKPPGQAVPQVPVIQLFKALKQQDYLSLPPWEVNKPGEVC

Chain of human TYK2 (JH2domain-pseudokinase) (P29597 556-888): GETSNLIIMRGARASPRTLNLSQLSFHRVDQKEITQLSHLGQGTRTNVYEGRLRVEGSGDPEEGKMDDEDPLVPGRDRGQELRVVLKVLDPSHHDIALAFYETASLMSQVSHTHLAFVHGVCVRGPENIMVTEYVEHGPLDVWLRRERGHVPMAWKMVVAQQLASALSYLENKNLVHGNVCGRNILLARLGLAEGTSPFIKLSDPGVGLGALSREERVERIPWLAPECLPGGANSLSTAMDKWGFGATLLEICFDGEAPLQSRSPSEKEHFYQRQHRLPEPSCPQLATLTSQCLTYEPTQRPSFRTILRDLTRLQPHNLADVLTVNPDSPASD

Structure (SMILES)	Kd [1] [nM]	IC50 [4] [nM]	IC50 [5] [nM]	other results
CNc1cc(Nc2cccn(-c3nn(C)cc3C)c2=O)nc2c(C(=O)NC3CC3)cnn12 [I-404]	0.2 to 1	> 1000		inhibition at 10 µM ([2]; compound at 10 μM, ATP 10 μM): < 50%; inhibition at 10 µM ([3]; compound at 10 μM, ATP 10 μM): < 50%
CNc1cc(Nc2cccc3ocnc23)nc2c(C(=O)N[C@H]3COC[C@H]3O)cnn12 [I-834]		100 to 500	> 50000	inhibition at 10 µM ([2]; 10 μM compound, 10 μM ATP): < 50%; inhibition at 10 µM ([3]; 10 μM compound, 10 μM ATP): < 50%
[2H]C([2H])([2H])Oc1ncccc1Nc1cc(NC)n2ncc(C(=O)NC3CC4(COC4)C3)c2n1 [I-417, 5-((2-(methoxy-d3)pyridin-3-yl)amino)-7-(methylamino)-N-(2-oxaspiro[3.3]heptan-6-yl)pyrazolo[1,5-a]pyrimidine-3-carboxamide]		100 to 500	> 50000	inhibition at 10 µM ([2]; compound at 10 μM, ATP 10 μM): < 50%; inhibition at 10 µM ([3]; compound at 10 μM, ATP 10 μM): < 50%
CNc1cc(Nc2cccn(-c3ncccc3F)c2=O)nc2c(C(=O)O)cnn12 [I-893, 5-((3′-fluoro-2-oxo-2H-[1,2′-bipyridin]-3-yl)amino)-7-(methylamino) pyrazolo[1,5-a]pyrimidine-3-carboxylic acid]	1 to 10	> 1000		inhibition at 10 µM ([2]; 10 μM compound, 10 μM ATP): < 50%; inhibition at 10 µM ([3]; 10 μM compound, 10 μM ATP): < 50%
CNc1cc(-c2cn(CCN3CCN(C)CC3)c3ncccc23)nc2c(C(=O)N[C@H]3CC[C@@H]3OC)cnn12 [I-952]		100 to 500	> 2500	Tyk2 JH1% Inhibition @ 10 μM ([2]; 10 μM compound, 10 μM ATP): A (percent inhibition at 10 μM lower than 50); JAK2 JH1% Inhibition @ 10 μM ([3]; 10 μM compound, 10 μM ATP): A (percent inhibition at 10 μM lower than 50)
CNc1cc(Nc2cccn([C@H]3CC[C@](C)(O)CC3)c2=O)nc2c(C(=O)NC3CC3)cnn12 [I-371]	< 0.2	100 to 500		inhibition at 10 µM ([2]; compound at 10 μM, ATP 10 μM): < 50%; inhibition at 10 µM ([3]; compound at 10 μM, ATP 10 μM): < 50%
CNc1cc(Nc2cccn(-c3nn(C)cc3C)c2=O)nc2c(C(=O)N[C@H]3C[C@H]3F)cnn12 [I-405]	0.2 to 1	100 to 500		inhibition at 10 µM ([2]; compound at 10 μM, ATP 10 μM): < 50%; inhibition at 10 µM ([3]; compound at 10 μM, ATP 10 μM): < 50%
CNc1cc(Nc2cccc3ocnc23)nc2c(C(=O)N[C@@H]3CC[C@H]3O)cnn12 [I-857]		100 to 500	> 50000	inhibition at 10 µM ([2]; 10 μM compound, 10 μM ATP): < 50%; inhibition at 10 µM ([3]; 10 μM compound, 10 μM ATP): < 50%
CNc1cc(Nc2cccn(-c3ccccn3)c2=O)nc2c(C(=O)N[C@@H]3C[C@H]3OC)cnn12 [I-1286]	< 0.2	< 100		
CNc1cc(Nc2cccn(-c3ccc(F)cc3)c2=O)nc2c(C(N)=O)cnn12 [I-9]	< 0.2	100 to 500		inhibition at 10 µM ([2]; compound at 10 μM, ATP 10 μM): < 50%; inhibition at 10 µM ([3]; compound at 10 μM, ATP 10 μM): < 50%
CNc1cc(Nc2cccnc2OC2CC2)nc2c(C(=O)N[C@H]3CC[C@@H]3O)cnn12 [I-397]		< 100	> 50000	Tyk2 JH1% Inhibition @ 10 μM ([2]; compound at 10 μM, ATP 10 μM): A (percent inhibition at 10 μM lower than 50); JAK2 JH1% Inhibition @ 10 μM ([3]; compound at 10 μM, ATP 10 μM): A (percent inhibition at 10 μM lower than 50)
CNc1cc(Nc2cccn3ccnc23)nc2c(C(=O)N[C@@H]3CC[C@H]3OC)cnn12 [I-1133]	1 to 10	< 100		
CNc1cc(Nc2cccn([C@H]3CCN(CCF)C3)c2=O)nc2c(C(=O)N[C@H]3CC[C@@H]3OC)cnn12 [I-1381]	0.2 to 1	< 100		

More lines, main results first:

Kd [1] [nM]	IC50 [4] [nM]	IC50 [5] [nM]	Structure (SMILES)	other results
	< 100	> 50000	CNc1cc(Nc2cccn([C@H]3CC[C@@H]3O)c2=O)nc2c(C(=O)N[C@@H]3C[C@@H]3F)cnn12 [I-916]	inhibition at 10 µM ([2]; 10 μM compound, 10 μM ATP): < 50%; inhibition at 10 µM ([3]; 10 μM compound, 10 μM ATP): < 50%
< 0.2	< 100		CNc1cc(Nc2cccn([C@H]3CCC[C@@H](OC)C3)c2=O)nc2c(C(=O)NCC(C)(C)CO)cnn12 [I-861]	inhibition at 10 µM ([2]; 10 μM compound, 10 μM ATP): < 50%; inhibition at 10 µM ([3]; 10 μM compound, 10 μM ATP): < 50%
	< 100	> 50000	CNc1cc(Nc2cccn(C3CCCCC3)c2=O)nc2c(C(=O)N[C@@H]3CC[C@H]3O)cnn12 [I-943]	inhibition at 10 µM ([2]; 10 μM compound, 10 μM ATP): < 50%; inhibition at 10 µM ([3]; 10 μM compound, 10 μM ATP): < 50%
	< 100	> 12500	CNc1cc(-c2cn(CCN3CCCCC3)c3ncccc23)nc2c(C(=O)N[C@@H]3CC[C@H]3O)cnn12 [I-837]	inhibition at 10 µM ([2]; 10 μM compound, 10 μM ATP): < 50%; inhibition at 10 µM ([3]; 10 μM compound, 10 μM ATP): < 50%
< 0.2	< 100	> 50000	CNc1cc(Nc2cccc(C3CCCOC3)n2)nc2c(C(=O)N[C@@H]3C[C@@H]3F)cnn12 (stereo partly drawn) [I-522]	
	< 100	> 50000	CNc1cc(Nc2cccn(-c3cccc(F)c3)c2=O)nc2c(C(=O)N[C@@H]3CC[C@H]3O)cnn12 [I-946]	Tyk2 JH1% Inhibition @ 10 μM ([2]; 10 μM compound, 10 μM ATP): A (percent inhibition at 10 μM lower than 50); JAK2 JH1% Inhibition @ 10 μM ([3]; 10 μM compound, 10 μM ATP): A (percent inhibition at 10 μM lower than 50)
	< 100	> 50000	CNc1cc(-c2cn(C3CC3)c3ncccc23)nc2c(C(=O)N[C@H]3CC[C@H]3O)cnn12 [I-992, 5-(1-cyclopropyl-1H-pyrrolo[2,3-b]pyridin-3-yl)-N-((1S,2R)-2-hydroxycyclobutyl)-7-(methylamino)pyrazolo[1,5-a]pyrimidine-3-carboxamide]	Tyk2 JH1% Inhibition @ 10 μM ([2]; 10 μM compound, 10 μM ATP): A (percent inhibition at 10 μM lower than 50); JAK2 JH1% Inhibition @ 10 μM ([3]; 10 μM compound, 10 μM ATP): A (percent inhibition at 10 μM lower than 50)
< 0.2	< 100	> 50000	CNc1cc(Nc2cccc(C)c2Cl)nc2c(C(N)=O)cnn12 [I-14]	
< 0.2	< 100		CNc1cc(Nc2cccn([C@H]3CC[C@](C)(O)CC3)c2=O)nc2c(C(=O)N[C@H]3C[C@H]3F)cnn12 [I-372]	inhibition at 10 µM ([2]; compound at 10 μM, ATP 10 μM): < 50%; inhibition at 10 µM ([3]; compound at 10 μM, ATP 10 μM): < 50%
< 0.2	< 100		CNc1cc(Nc2cccn([C@H]3CC[C@@](C)(O)CC3)c2=O)nc2c(C(=O)N[C@H]3C[C@H]3F)cnn12 [I-370]	inhibition at 10 µM ([2]; compound at 10 μM, ATP 10 μM): < 50%; inhibition at 10 µM ([3]; compound at 10 μM, ATP 10 μM): < 50%
1 to 10	< 100		CNc1cc(Nc2cccn([C@@H]3CC[C@@H]3O)c2=O)nc2c(C(=O)N[C@H]3CC[C@@H]3OC)cnn12 [I-1411]	
0.2 to 1	< 100		CNc1cc(Nc2cccn([C@H]3CCC[C@H](O)C3)c2=O)nc2c(C(=O)N[C@@H]3CC[C@H]3OC)cnn12 [I-1395]	
0.2 to 1	< 100		CNc1cc(Nc2cccn([C@H]3CCC[C@H](OC)C3)c2=O)nc2c(C(=O)N[C@@H]3CC[C@H]3OC)cnn12 [I-1374]	
0.2 to 1	< 100		CNc1cc(Nc2cccn([C@H]3CC[C@@H]3O)c2=O)nc2c(C(=O)N[C@H]3CC[C@@H]3OC)cnn12 [I-1385]	
	< 100	> 50000	CNc1cc(Nc2cccn(-c3nc(C)co3)c2=O)nc2c(C(=O)N[C@@H]3CC[C@@H]3O)cnn12 [I-706]	Tyk2 JH1% Inhibition @ 10 μM ([2]; compound at 10 μM, ATP 10 μM): A (percent inhibition at 10 μM lower than 50); JAK2 JH1% Inhibition @ 10 μM ([3]; compound at 10 μM, ATP 10 μM): A (percent inhibition at 10 μM lower than 50)
< 0.2	< 100		CNc1cc(Nc2cccn([C@H]3CCCN(CCF)C3)c2=O)nc2c(C(=O)N[C@@H]3C[C@@H]3F)cnn12 [I-900]	inhibition at 10 µM ([2]; 10 μM compound, 10 μM ATP): < 50%; inhibition at 10 µM ([3]; 10 μM compound, 10 μM ATP): < 50%
< 0.2	< 100		CNc1cc(Nc2cccn([C@@H]3CCCOC3)c2=O)nc2c(C(=O)NC3CC3)cnn12 [I-351]	inhibition at 10 µM ([2]; compound at 10 μM, ATP 10 μM): < 50%; inhibition at 10 µM ([3]; compound at 10 μM, ATP 10 μM): < 50%
	< 100	> 50000	CNc1cc(Nc2cccn([C@@H]3CCC[C@H](OC)C3)c2=O)nc2c(C(=O)N[C@@H]3CC[C@H]3OC)cnn12 [I-995]	Tyk2 JH1% Inhibition @ 10 μM ([2]; 10 μM compound, 10 μM ATP): A (percent inhibition at 10 μM lower than 50); JAK2 JH1% Inhibition @ 10 μM ([3]; 10 μM compound, 10 μM ATP): A (percent inhibition at 10 μM lower than 50)
